Data published in article PMC6753139, “TRIM66 reads unmodified H3R2K4 and H3K56ac to respond to DNA damage in embryonic stem cells” (Nature Communications, 2019).

Target: T1, TRIM66-WT965-1160 (Homo sapiens, UniProt O15016)
T1 construct: ITC titration: titrating TRIM66-WT965-1160 with various histone H3 peptides; GST (N, cleaved yes); made in house; host or cells: Escherichia coli BL21 (DE3)
T1 sequence (O15016 1100-1295): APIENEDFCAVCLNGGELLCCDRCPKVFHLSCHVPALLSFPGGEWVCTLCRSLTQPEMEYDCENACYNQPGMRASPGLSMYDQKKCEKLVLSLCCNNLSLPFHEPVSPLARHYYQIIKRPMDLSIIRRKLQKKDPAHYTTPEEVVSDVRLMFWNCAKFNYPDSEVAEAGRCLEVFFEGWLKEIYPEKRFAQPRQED
Assay: ITC, PHD-Bromodomain wild type
Assay type: binding
Settings: ITC, MicroCal PEAQ-ITC, 25 °C, 20 mM Tris, 100 mM NaCl, pH 7.5; single measurement, error from curve fit; Weak binding = ITC curves cannot be fitted reliably; N.D. = no detectable binding
Source text: We next performed the glutathione S-transferase (GST) pulldown assays of the TRIM66-WT965-1160 against the calf thymus histones to verify the histone-binding ability of TRIM66 PHD-Bromodomain. […] The PHD of TRIM66 shared a low conservation with those of ING4, PHF2, and BPTF, and lacked the conserved aromatic residues, which were necessary for binding H3K4me2/3[40]–[42] (Supplementary Fig. 2b). Nevertheless, TRIM66 was highly conserved in sequence and structure with the PHDs of TRIM24 and TRIM33 (Fig. 1c and Supplementary Fig. 2b), which were reported to bind H3K4me0[5],[6]; thus, we speculated that the PHD of TRIM66 could bind H3K4me0. To verify this hypothesis, we performed isothermal titration calorimetry (ITC)-based binding assays. […] Based on previous researches reporting the acetyl-lysine binding partners of Bromodomain[3]–[12], we chose a series of related peptides derived from H3 and H4, to test their interactions with TRIM66-WT965-1160 by ITC experiments. […] We further found the acetylated state of K56 was necessary for this binding (Supplementary Fig. 3b).
We next titrated the TRIM66-WT965-1160 with a series of R2-methylated H3 peptides through ITC assays. […] This finding was consistent with the structural observation that each NηH atom of the R2 formed a hydrogen bond with residues in protein (Fig. 2d).
The DNA fragments of human TRIM66_968-1160, TRIM24_824-1006, and TRIM33_882-1087 were amplified from a human bone marrow cDNA library using a PCR-based cloning strategy. The fragments of TRIM66-WT968-1160 were inserted into a pGEX-4T-1 plasmid (GE Healthcare). The fragments of TRIM24_824-1006 and TRIM33_882-1087 were ligated into a pET-SUMO-28a (+) plasmid (Novagen). The DNA fragments of TRIM66-MUT968-1160 and TRIM66-WT965-1160 with codon optimization were synthesized by General Biosystems (sequence was shown in Supplementary Methods) and inserted into a pGEXT-4T-1 plasmid (GE Healthcare). Mutants of TRIM66 PHD-Bromo were generated through PCR using the Mutant Best kit (Takara). The mutation of point mutant based on the codon-optimized DNA sequence of TRIM66-WT965-1160. All constructs were expressed in Escherichia coli BL21 (DE3). The construct of ASF1a1-156 inserted into a pRSFDuet plasmid (courtesy of Ruiming Xu Lab, Institute of Biophysics, Chinese Academy of Sciences) was expressed in E. coli BL21 (DE3) RIL. The construct of full-length H4 inserted into a pET3a plasmid was expressed in E. coli BL21 (DE3). The expression of full-length histone H3K56ac was performed in BL21 (DE3) cells transformed with pBK-AxcKRS3 and pET22b encoding H3 with amber codons at the K56 site[12]. The DNA fragment of full-length TRIM66 was synthesized by General Biosystems and ligated into fugw vector (Addgene). See the information of protein sequence in Supplementary Table 1.
The calorimetric experiments were performed at 25 °C using a MicroCal PEAQ-ITC. The proteins were dialyzed using a buffer containing 20 mM Tris and 100 mM NaCl at pH 7.5. Lyophilized peptides were dissolved in the same buffer and adjusted to pH 7.5 prior to use. Peptide concentrations were estimated from the quantitative NMR experiments[73],[74]. ITC measurements were performed via injection of 0.7–4 mM peptide into a cell containing 0.12 mM TRIM24-PHD-Bromo, 0.05 mM TRIM33 PHD-Bromo, and 0.05 or 0.11–0.15 mM TRIM66-PHD-Bromo (or its mutants). The ITC data were subsequently analyzed using the MicroCal PEAQ-ITC analysis software.

Kd: 15.7 ± 0.64 µM
SMILES: C[C@H](N)C(=O)N[C@@H](CCCNC(=N)N)C(=O)N[C@H](C(=O)N[C@@H](CCCCN)C(=O)N[C@@H](CCC(N)=O)C(=O)N[C@H](C(=O)N[C@@H](C)C(=O)N[C@@H](CCCNC(=N)N)C(=O)N[C@@H](CCCCN)C(=O)N[C@@H](CO)C(=O)N[C@H](C(=O)NCC(=O)O)[C@@H](C)O)[C@@H](C)O)[C@@H](C)O [H3_1-12]
